Experimental data taken from PubChem BioAssay (NCI).
Where “and” joins values, the source holds several entries; their conditions need not be identical. Identical values can stand only once.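 How tested: cells in 96-well plates exposed to compound for 48 hours at five concentrations. Here, GI50 denotes the concentration required for 50% inhibition of growth. At the TGI there is no net growth.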 Where a SMILES comes first, the peptide text is derived from it. The star is where a group is joined. Boc = CC(C)(C)OC(=O)*

Columns and labels:
Assay in all cases: NCI tumour cell line growth inhibition, 48 h
SNB-78 CNS = system: SNB-78 CNS
DLD-1 colon = system: DLD-1 colon
XF 498 CNS = system: XF 498 CNS
DMS 114 small cell lung = system: DMS 114 small cell lung
KM20L2 colon = system: KM20L2 colon
LXFL 529 NSCLC = system: LXFL 529 NSCLC
RXF-631 renal = system: RXF-631 renal
MDA-N = system: MDA-N
P388 leukemia = system: P388 leukemia
SN12K1 renal = system: SN12K1 renal
P388/ADR leukemia = system: P388/ADR leukemia
HOP-18 NSCLC = system: HOP-18 NSCLC

Structure (SMILES) | TGI (SNB-78 CNS) [µM] | TGI (DLD-1 colon) | TGI (XF 498 CNS) [µM] | TGI (DMS 114 small cell lung) | TGI (KM20L2 colon) [µM] | TGI (LXFL 529 NSCLC) | TGI (MDA-N) | TGI (HOP-18 NSCLC) | other results
C[C@]12CCC(=O)C=C1CC[C@@H]1C2CC[C@]2(C)Nc3[nH]ncc3CC12 (some centres undefined) | > 100 | > 100 µM | > 100 | > 100 µM | > 100 | > 100 µM | – | – | –
CCN(CC)CCSc1c2ccccc2nc2c(OC)ccc(OC)c12 | 22.3 | – | > 21.1 | 3.24 µM | > 21.1 | > 21.3 µM | – | – | TGI (RXF-631 renal): 17.9 µM
COC(=O)C(C)NC(=O)C(CCSC)NC(=O)C(Cc1ccccc1)NC(=O)OC(C)(C)C (stereo not drawn) (Boc-Phe-Met-Ala-OMe; configuration not given here) | – | – | – | – | – | – | > 100 µM | – | GI50 (MDA-N): 48.9 µg/mL
COC12C(COC(N)=O)C3=C(C(=O)C(C)=C(N)C3=O)N1CC1C2N1C (centres undefined) | 51.1 | 57.8 µM | 21 | – | 52.3 | – | 35.3 µM | 82.5 µM | TGI (P388 leukemia): 75.2 µM; TGI (SN12K1 renal): 19.9 µM; TGI (P388/ADR leukemia): 263 µM
Oc1ccc2ccccc2c1N=Nc1ccc(Br)cc1 | – | – | – | – | – | – | > 100 µM | – | –
CN(C)c1ncnc2c1ncn2CCn1cnc2c(N(C)C)ncnc21 | – | – | – | – | – | – | > 100 µM | – | –
COC12OCCN(C)C1=CC(=O)C1=NNC(C)C12 (centres undefined) | > 100 | > 100 µM | – | > 100 µM | – | > 100 µM | – | > 100 µM | TGI (RXF-631 renal): > 100 µM
S=c1[nH]c2c(Cl)c(Cl)c(Cl)c(Cl)c2[nH]1 | – | – | – | – | – | – | 51.4 µM | – | –
O=C1CCC(=O)c2c1c(O)c1ccncc1c2O | 38.4 | 28.1 µM | 32.7 | 25.4 µM | 49.8 | 30.2 µM | – | 60.5 µM | TGI (RXF-631 renal): 54.8 µM
[N-]=[N+]=N/C1=C/CCCCC(=O)C1 | > 100 | > 100 µM | > 100 | > 100 µM | > 100 | > 100 µM | – | – | –
CN(C)CCSc1cc(-c2ccccc2)c2ccccc2n1 | – | – | – | – | – | – | 22.7 µM | – | –
Cc1ccc(S(=O)OCc2c(C)c(C)c(COS(=O)c3ccc(C)cc3)c(C)c2C)cc1 (centres undefined) | > 100 | > 100 µM | > 100 | > 100 µM | > 100 | > 100 µM | – | > 100 µM | –
CCOC(=O)c1ccc(N=Nc2cc(C(=O)OCC)ccc2O)cc1 | – | > 100 µM | 22 | > 100 µM | > 100 | > 100 µM | – | > 100 µM | –
Cn1c2ccccc2c2ncc3[nH]c4ccccc4c3c21 | 57.6 | > 100 µM | 31.8 | 54.3 µM | 36.6 | 80.1 µM | – | – | TGI (RXF-631 renal): > 100 µM
CS/C(=C(\S)c1ccccc1)c1ccccc1 | > 100 | > 100 µM | > 100 | > 100 µM | > 31.6 | > 100 µM | – | > 100 µM | TGI (RXF-631 renal): > 100 µM
COc1ccc2c(c1)c[n+](C)c1c3cc(OC)c(OC)cc3ccc21 | 22.4 | 18 µM | 17.1 | 7.14 µM | 17.8 | 7.25 µM | 3.08 µM and 8.07 µM | 29.4 µM | –
CC1(Br)Cc2ccccc2C1=O (centres undefined) | – | – | – | – | – | – | 18.2 µM | – | GI50 (MDA-N): 4.45 µM
CSc1nc(NC2OC(COC(C)=O)C(OC(C)=O)C(OC(C)=O)C2OC(C)=O)c(N=CC=Nc2c(NC3OC(COC(C)=O)C(OC(C)=O)C(OC(C)=O)C3OC(C)=O)nc(SC)n(C)c2=O)c(=O)n1C (centres undefined) | > 93.7 | > 100 µM | 30.3 | > 100 µM | > 100 | > 100 µM | > 100 µM | > 100 µM | TGI (RXF-631 renal): > 100 µM

Structure (SMILES) | TGI (SNB-78 CNS) [µM] | TGI (DLD-1 colon) | TGI (XF 498 CNS) [µM] | TGI (DMS 114 small cell lung) | TGI (KM20L2 colon) [µM] | TGI (LXFL 529 NSCLC) | TGI (MDA-N) | TGI (HOP-18 NSCLC) | other results
C=COC(=O)N[C@H]1CCc2cc(OC)c(OC)c(OC)c2-c2ccc(SC)c(=O)cc21 | > 100 | – | > 62.3 | – | < 0.01 | > 100 µM | < 0.01 µM | > 100 µM | –
O=C(O)c1ccc(C(=O)O)c2c(C(=O)O)ccc(C(=O)O)c12 | – | – | – | – | – | – | > 100 µM | – | –
C/C(=N\NC(=S)N1CCCCCC1)c1ccccn1 | 13.7 | 1.38 µM and 4.44 µM | – | 0.138 µM and 0.0298 µM | – | 0.19 µM and 0.405 µM | 1.5 µM | 0.927 µM and 6.14 µM | GI50 (SNB-78 CNS): 0.355 µM; TGI (RXF-631 renal): 2.83 µM; GI50 (XF 498 CNS): 0.0141 µM; GI50 (MDA-N): 0.169 µM; GI50 (HOP-18 NSCLC): 0.72 µM
O=c1[nH]c2ccc(O)cc2o1 | – | – | – | – | – | – | > 100 µM | – | –
COC(=O)c1cc2c(s1)-c1nccc3c1c(nc1ccccc13)C2=O | – | – | – | – | – | – | > 100 µM | – | GI50 (MDA-N): 32.9 µM
CC(=O)N1CCC(=O)/C(=C/c2ccccc2)C1 | > 100 | 66.2 µM | > 100 | 30.8 µM | > 100 | 47.2 µM | – | 51.2 µM | TGI (RXF-631 renal): > 100 µM
C=CCN1CCC23c4c5ccc(O)c4OC2C(=NN=C2CCC4(O)C6Cc7ccc(O)c8c7C4(CCN6CC=C)C2O8)CCC3(O)C1C5 (centres undefined) | 68 | > 100 µM | 32.9 | 60.8 µM | 47.8 | 88.7 µM | – | > 100 µM | TGI (RXF-631 renal): 50.2 µM
CC12CCC3c4ccc(O)cc4CCC3C1C/C(=N\O)C2O (centres undefined) | – | – | – | – | – | – | > 100 µM | – | –
CC(C)=CCc1cc2c(cc1O)OC[C@H]1c3cc4c(cc3O[C@@H]21)OCO4 | – | – | – | – | – | – | > 100 µM | – | –
CN(C)CCNC(=O)c1cccc2c(Nc3ccc(S(=O)(=O)N=C(N)N)cc3)c3ccccc3nc12 | – | > 100 µM | 47.4 | 15.1 µM | > 100 | > 100 µM | – | – | –
Nc1ccn(C2OC(CO)C(O)C2O)c(=O)n1 (centres undefined) | – | > 500 µM | > 494 | 417 µM | > 482 | > 500 µM | > 500 µM | 250 µM | TGI (P388 leukemia): 1.81 µM; TGI (SN12K1 renal): > 500 µM; TGI (P388/ADR leukemia): 1.15 µM; GI50 (HOP-18 NSCLC): 77.1 µM
O=C(/C=C/C=C/c1ccccc1)c1ccccc1 | – | – | – | – | – | – | 30.4 µM | – | –
CCc1c(Cl)c(C)cc(O)c1Cl | – | – | – | – | – | – | 41.3 µM | – | –
COc1ccc(C2=C(c3ccc(OC)cc3)C(=O)N3CCCC3C2)cc1 (centres undefined) | – | – | – | – | – | – | > 100 µM | – | GI50 (MDA-N): 12.2 µM
Cc1cc2cc3c(=O)[nH]c(=O)[nH]c3nc2cc1C | – | – | – | – | – | – | > 100 µM | – | –
COc1cc2c3c(c1OC)-c1cc4c(cc1CC3(C#N)N(C(=O)c1ccccc1)CC2)OCO4 (centres undefined) | 42.6 | > 100 µM | 24.8 | > 85.1 µM | > 100 | 56.3 µM | > 100 µM | 93.2 µM | –
COC(=O)c1s/c(=N\C(=S)N(C)C)n(-c2ccc(Cl)cc2)c1C(=O)OC | > 100 | – | – | – | > 100 | – | – | – | –
